{"source": "patent US20040167226A1", "about": "“Methods for the treatment of pain and traumatic injury using benzamides and compositions containing the same” (priority 2002, published 2004)", "key": {"[1]": {"system": "contused spinal cord injury", "assay": "Spinal cord injury, contusion model, BBB locomotor score", "type": "in vivo, Sprague-Dawley rats", "details": "SCI Study No. 4; 14 day contusion; rats; 20 mg/kg BID i.p., 75% PEG200 formulation", "protocol": "Compound A was tested in both the rat dorsal hemisection (Guth, L. et al. (1980), J. Neurosurgery 52: 73-86) and contusion models (Scheff, S. W. (2003), J. Neurotrauma 20: 179-193) for evaluation of efficacy. These models are widely used in the field of spinal cord injury and replicate many of the pathological aspects found in humans who have sustained a spinal cord injury. Rats were subjected to an experimental spinal cord injury at T8, and were given Compound A shortly thereafter. Behavioral tests to assess the locomotion deficits were performed after the lesion. At the end of the experiment, animals were sacrificed and the spinal cord was collected for histopathological analysis. […] Histological assessment of the tissue at the site of injury was also made in both the drug treated and untreated group. […]\nThe BBB score is a 21-point scale representing 21 stages of locomotor recovery after spinal cord injury. The scale is based on unique combinations of scored behaviors, ranked according to time of appearance after injury. […]"}, "[2]": {"assay": "Solubility of Compound A in dosing vehicles", "type": "physicochemical", "protocol": "PEG-200 formulation for i.p. administration of Compound A: PEG-200 was diluted in deionized destilled water to give a final concentration of 75% (volume/volume). Compound A was weighed to yield a final concentration of 10 mg/ml in 75% PEG-200 vehicle and sonicated for 12×30 seconds with 5 second intervals on ice to generate a Compound A suspension. 100 μL of either Compound A suspension or control vehicle (75% PEG-200) per 20 grams of mice (body weight) was administered via i.p., thus yielding a dose of 50 mg/kg (body weight).\nCremophor EL/alcohol/saline formulation for i.p. administration of Compound A: 40 mg/ml, 20 mg/ml or 10 mg/ml of Compound A was dissolved in Cremophor EL/alcohol (90:10) (volume:volume), respectively, by brief sonication on ice, then freshly diluted 10-fold in saline solution (9% Cremophor EL; 1% ETOH and 90% saline) to give a final concentration of 4 mg/ml, 2 mg/ml and 1 mg/ml, respectively, before injection. 100 μL of Compound A solution at a concentration of […] was administered via i.p. to mice (per 20 grams of body weight), thus yielding a dose of 20 mg/kg (body weight), 10 mg/kg (body weight), and 5 mg/kg (body weight), respectively. The control vehicle was 9% Cremophor EL/1% ETOH/90% saline. […]"}}, "data": [{"smiles": "CC(=O)Nc1ccc(C(=O)NC(C)(C)C)cc1", "note": "[Compound A, N-tert-butyl-4-acetamidobenzamide]", "values": [{"measurement": "functional neurological outcome, BBB score", "setting": "[1]", "value": "no significant effects were observed"}, {"measurement": "solubility in 9% Cremophor EL, 1% ETOH and 90% saline", "setting": "[2]; 9% Cremophor EL, 1% ETOH, 90% saline vehicle", "value": "quite soluble"}, {"measurement": "solubility in 75% PEG-200", "setting": "[2]; 75% PEG-200 vehicle", "value": "not soluble"}]}]}
